Measurements from patent EP3965790B1, “PENTACYCLIC TRITERPENES IN THE TREATMENT OF VITILIGO” (Pierre Fabre Dermo-Cosmétique, priority 2019, dated 2020).

Assays:
CXCL16 = assay: RT-qPCR gene expression in cytokine-stimulated keratinocytes; format: cell-based, humains; conditions: stimulated keratinocytes, 24 h
MMP-9 [1] = assay: as above; format: cell-based, humains; conditions: stimulated keratinocytes, 24 h
[2] = ORAC (Oxygen Radical Antioxydant Capacity) antioxidant test in tubo; conditions: Trolox standard, AAPH, fluorescéine
Source text: Le stress oxydatif fait partie des causes possibles de l'apparition du vitiligo. Cette expérience a pour objectif de mesurer l'activité antioxydante de chaque triterpène pentacyclique et des deux extraits, en comparaison avec un témoin positif bien connu, la vitamine C. La méthode in tubo utilisée est celle d'évaluation ORAC (Oxygen Radical Antioxydant Capacity) adaptée de celle décrite par Davalos et al. (J Agric Food Chem 52(1):48-54, 2004). L'indice ORAC permet d'évaluer la capacité anti-oxydante de chaque composé testé dans l'exemple 2. Ce test permet d'évaluer et de classer les différents composés testés suivant leur pouvoir anti-oxydant vis-à-vis des radicaux libres péroxyl. Le AAPH (2,2'-azobis-2-méthyl-propanimidamide, dihydrochloride) est à l'origine de radicaux libres péroxyl. Ce test est utilisé pour mimer la cinétique de dégradation de la fluorescéine par les radicaux libres. Ceci se traduit par une diminution de fluorescence en fonction du temps et de la concentration en actif anti-oxydant présent dans l'extrait testé. L'acide 3,4-dihydro-6-hydroxy-2,5,7,8-tétraméthyl-2H-1-benzopyran-2-carboxylique ou Trolox est utilisé comme standard, il s'agit d'un analogue hydrophile de la vitamine E (anti-oxydant connu). L'ajout de Trolox (gamme de référence) ou d'extrait ou triterpène pentacyclique, protège la fluorescéine de la dégradation. Ceci permet d'évaluer une activité antioxydante mesurée par rapport à une gamme de Trolox.
Toutes les solutions sont réalisées dans du tampon phosphate 75 mM, pH à 7,6. La fluorescéine est à 1,17 µM (solution mère […]). AAPH à 125 mM est préparé extemporanément, Trolox à 1 mM. Dans une plaque de 96 puits noir, il est déposé 20 µl d'antioxydant (gamme Trolox ou composé à tester), 160 µl de fluorescéine à 1,17 µM. la plaque est recouverte d'un film, puis est incubée pendant 15 minutes à 37°C. la solution de AAPH est ajoutée manuellement et le plus rapidement possible à raison de 20 µl par puits. La plaque est alors incubée immédiatement à 37°C dans un spectrofluorimètre (SpectraMax). Une lecture est enregistrée toutes les minutes pendant 90 minutes. La longueur d'onde d'excitation est de 485 nm et la longueur d'onde d'émission est de 520 nm. Chaque essai est réalisé en triplicata.
Les aires sous la courbe (AUC) pour chacun des essais sont calculées. Les AUC nets sont déterminées de la façon suivante : AUC net = AUC point de gamme ou échantillon−AUC blanc. [formula]
La droite d'étalonnage est établie, la concentration en Trolox (µM) en fonction de l'AUC net. L'équation de la droite est utilisée pour déterminer un équivalent en Trolox (µM) pour chacun des échantillons dosés.
Eq Trolox en µM = a x (AUC net)2 + b x (AUC net), a et b sont déterminés par l'équation de la droite.
Pour être dosés, les échantillons sont dilués, de sorte que les valeurs mesurées soient comprises dans la gamme étalon utilisée pour le dosage. L'acide ascorbique (vitamine C) est utilisé comme référence.
L'indice ORAC correspond à des […] de Trolox / 100g de matières.
Les résultats ci-dessous ont été calculés pour 100g d'extrait en Triterpènes, Tingénine A, Tingénine B et célastrol, soit le calcul : [formula]

IL-8 [3] = assay: RT-qPCR gene expression in cytokine-stimulated keratinocytes; format: cell-based, humains; conditions: stimulated keratinocytes, 24 h
CCL5 = assay: as above; format: cell-based, humains; conditions: stimulated keratinocytes, 24 h
MMP-9 [4] = assay: ELISA of MMP-9 release by cytokine-stimulated keratinocytes; format: cell-based, humains; conditions: for Libération de MMP-9 (pg/ml) ± sem: stimulated keratinocytes, 48 h, supernatant; for effet sur la libération de MMP-9 (in words): concentrations as in Tableau 5 (JAK 10 µM; TA, TB 500 ng/ml; Célastrol 100 ng/ml; extrait 1 200 ng/ml; extrait 2 150 ng/ml)
CXCL10 = assay: RT-qPCR gene expression in cytokine-stimulated keratinocytes; format: cell-based, humains; conditions: stimulated keratinocytes, 24 h
CCL20 = assay: as above; format: cell-based, humains; conditions: stimulated keratinocytes, 24 h
S100A7 = assay: as above; format: cell-based, humains; conditions: stimulated keratinocytes, 24 h
IL-8 [5] = assay: ELISA of IL-8 release by cytokine-stimulated keratinocytes; format: cell-based, humains; conditions: for effet sur la libération d'IL-8 (in words): concentrations as in Tableau 5 (JAK 10 µM; TA, TB 500 ng/ml; Célastrol 100 ng/ml; extrait 1 200 ng/ml; extrait 2 150 ng/ml)
CXCL11 = assay: RT-qPCR gene expression in cytokine-stimulated keratinocytes; format: cell-based, humains; conditions: stimulated keratinocytes, 24 h
DEFB4A = assay: as above; format: cell-based, humains; conditions: stimulated keratinocytes, 24 h
IL-23A = assay: as above; format: cell-based, humains; conditions: stimulated keratinocytes, 24 h

Compound	% Stimulation / Gènes témoins, CXCL16 (CXCL16; 45 ng/ml) [%]	% Stimulation / Gènes témoins, CXCL16 (CXCL16; 135 ng/ml) [%]	% Stimulation / Gènes témoins, MMP-9 (MMP-9 [1]; 45 ng/ml) [%]	% Stimulation / Gènes témoins, MMP-9 (MMP-9 [1]; 135 ng/ml) [%]	% Stimulation / Gènes témoins, IL-8 (IL-8 [3]; 45 ng/ml) [%]	% Stimulation / Gènes témoins, IL-8 (IL-8 [3]; 135 ng/ml) [%]	% Stimulation / Gènes témoins, CCL5 (CCL5; 45 ng/ml) [%]	% Stimulation / Gènes témoins, CCL5 (CCL5; 135 ng/ml) [%]	effet sur la libération de MMP-9 (in words) (MMP-9 [4])	% Stimulation / Gènes témoins, CXCL10 (CXCL10; 45 ng/ml) [%]	% Stimulation / Gènes témoins, CXCL10 (CXCL10; 135 ng/ml) [%]	% Stimulation / Gènes témoins, CCL20 (CCL20; 45 ng/ml) [%]	% Stimulation / Gènes témoins, CCL20 (CCL20; 135 ng/ml) [%]	% Stimulation / Gènes témoins, S100A7 (S100A7; 45 ng/ml) [%]	% Stimulation / Gènes témoins, S100A7 (S100A7; 135 ng/ml) [%]	effet sur la libération d'IL-8 (in words) (IL-8 [5])	% Stimulation / Gènes témoins, CXCL11 (CXCL11; 45 ng/ml) [%]	% Stimulation / Gènes témoins, CXCL11 (CXCL11; 135 ng/ml) [%]	% Stimulation / Gènes témoins, DEFB4A (DEFB4A; 45 ng/ml) [%]	% Stimulation / Gènes témoins, DEFB4A (DEFB4A; 135 ng/ml) [%]	also measured
CC1=C(O)C(=O)C=C2C1=CC=C1[C@@]2(C)CC[C@@]2(C)[C@@H]3C[C@](C)(C(=O)O)CC[C@]3(C)CC[C@]12C [Célastrol]	51	23	88	9	36	5	12	3	effet inhibiteur	20	10	35	11	53	16	effet inhibiteur	5	1	32	3	% Stimulation / Gènes témoins, CXCL16 (CXCL16; 15 ng/ml): 95%; % Stimulation / Gènes témoins, MMP-9 (MMP-9 [1]; 15 ng/ml): 139%; Indice ORAC / 100g triterpènes (x 1000) ([2]; 30 µg/ml): 126 466 / 100g triterpènes (x 1000); % Stimulation / Gènes témoins, IL-8 (IL-8 [3]; 15 ng/ml): 100%; % Stimulation / Gènes témoins, CCL5 (CCL5; 15 ng/ml): 79%; Libération de MMP-9 (pg/ml) ± sem (MMP-9 [4]; 100 ng/ml): 395 ± 15 pg/mL; % Stimulation / Gènes témoins, CXCL10 (CXCL10; 15 ng/ml): 72%; % Stimulation / Gènes témoins, CCL20 (CCL20; 15 ng/ml): 86%; % Stimulation / Gènes témoins, S100A7 (S100A7; 15 ng/ml): 78%; Libération d'IL-8 (pg/ml) ± sem (IL-8 [5]; 100 ng/ml, stimulated keratinocytes, 48 h, supernatant): 83 ± 7 pg/mL; % Stimulation / Gènes témoins, CXCL11 (CXCL11; 15 ng/ml): 59%; % Stimulation / Gènes témoins, DEFB4A (DEFB4A; 15 ng/ml): 90%; % Stimulation / Gènes témoins, IL-23A (IL-23A; 15 ng/ml): 63%; % Stimulation / Gènes témoins, IL-23A (IL-23A; 45 ng/ml): 41%; % Stimulation / Gènes témoins, IL-23A (IL-23A; 135 ng/ml): 15%
Tingénine B	83	77	88	63	96	70	68	55	effet inhibiteur	93	83	105	85	76	63	effet inhibiteur	78	57	67	48	% Stimulation / Gènes témoins, CXCL16 (CXCL16; 405 ng/ml): 54%; % Stimulation / Gènes témoins, MMP-9 (MMP-9 [1]; 405 ng/ml): 32%; Indice ORAC / 100g triterpènes (x 1000) ([2]; 7,5 µg/ml): 124 320 / 100g triterpènes (x 1000); % Stimulation / Gènes témoins, IL-8 (IL-8 [3]; 405 ng/ml): 44%; % Stimulation / Gènes témoins, CCL5 (CCL5; 405 ng/ml): 19%; Libération de MMP-9 (pg/ml) ± sem (MMP-9 [4]; 500 ng/ml): 828 ± 31 pg/mL; % Stimulation / Gènes témoins, CXCL10 (CXCL10; 405 ng/ml): 30%; % Stimulation / Gènes témoins, CCL20 (CCL20; 405 ng/ml): 82%; % Stimulation / Gènes témoins, S100A7 (S100A7; 405 ng/ml): 57%; % Stimulation / Gènes témoins, CXCL11 (CXCL11; 405 ng/ml): 27%; % Stimulation / Gènes témoins, DEFB4A (DEFB4A; 405 ng/ml): 16%; % Stimulation / Gènes témoins, IL-23A (IL-23A; 45 ng/ml): 80%; % Stimulation / Gènes témoins, IL-23A (IL-23A; 135 ng/ml): 72%; % Stimulation / Gènes témoins, IL-23A (IL-23A; 405 ng/ml): 34%
